Read-outs that look alike come from different tables or passages of the source.

Experiment [1] deals with ROCK1 (Homo sapiens, UniProt Q13464). The experiment is described as follows: ROCK assay (LabChip peptide phosphorylation), ROCK1. The class given is biochemical. Conditions: 5 μM ATP, 1.5 μM peptide substrate.
Experiment [2] has as its system neointimal formation. As to conditions: rats, model similar to balloon injury; cited from earlier work.
Experiment [3] concerns three rat models of hypertension. As to conditions: cited from earlier work.
Experiment [4] deals with IL-1 beta-induced coronary stenosis. Conditions: porcine model, long term treatment; cited from earlier work.

ROCK1, sequence (Q13464 whole entry, species assumed): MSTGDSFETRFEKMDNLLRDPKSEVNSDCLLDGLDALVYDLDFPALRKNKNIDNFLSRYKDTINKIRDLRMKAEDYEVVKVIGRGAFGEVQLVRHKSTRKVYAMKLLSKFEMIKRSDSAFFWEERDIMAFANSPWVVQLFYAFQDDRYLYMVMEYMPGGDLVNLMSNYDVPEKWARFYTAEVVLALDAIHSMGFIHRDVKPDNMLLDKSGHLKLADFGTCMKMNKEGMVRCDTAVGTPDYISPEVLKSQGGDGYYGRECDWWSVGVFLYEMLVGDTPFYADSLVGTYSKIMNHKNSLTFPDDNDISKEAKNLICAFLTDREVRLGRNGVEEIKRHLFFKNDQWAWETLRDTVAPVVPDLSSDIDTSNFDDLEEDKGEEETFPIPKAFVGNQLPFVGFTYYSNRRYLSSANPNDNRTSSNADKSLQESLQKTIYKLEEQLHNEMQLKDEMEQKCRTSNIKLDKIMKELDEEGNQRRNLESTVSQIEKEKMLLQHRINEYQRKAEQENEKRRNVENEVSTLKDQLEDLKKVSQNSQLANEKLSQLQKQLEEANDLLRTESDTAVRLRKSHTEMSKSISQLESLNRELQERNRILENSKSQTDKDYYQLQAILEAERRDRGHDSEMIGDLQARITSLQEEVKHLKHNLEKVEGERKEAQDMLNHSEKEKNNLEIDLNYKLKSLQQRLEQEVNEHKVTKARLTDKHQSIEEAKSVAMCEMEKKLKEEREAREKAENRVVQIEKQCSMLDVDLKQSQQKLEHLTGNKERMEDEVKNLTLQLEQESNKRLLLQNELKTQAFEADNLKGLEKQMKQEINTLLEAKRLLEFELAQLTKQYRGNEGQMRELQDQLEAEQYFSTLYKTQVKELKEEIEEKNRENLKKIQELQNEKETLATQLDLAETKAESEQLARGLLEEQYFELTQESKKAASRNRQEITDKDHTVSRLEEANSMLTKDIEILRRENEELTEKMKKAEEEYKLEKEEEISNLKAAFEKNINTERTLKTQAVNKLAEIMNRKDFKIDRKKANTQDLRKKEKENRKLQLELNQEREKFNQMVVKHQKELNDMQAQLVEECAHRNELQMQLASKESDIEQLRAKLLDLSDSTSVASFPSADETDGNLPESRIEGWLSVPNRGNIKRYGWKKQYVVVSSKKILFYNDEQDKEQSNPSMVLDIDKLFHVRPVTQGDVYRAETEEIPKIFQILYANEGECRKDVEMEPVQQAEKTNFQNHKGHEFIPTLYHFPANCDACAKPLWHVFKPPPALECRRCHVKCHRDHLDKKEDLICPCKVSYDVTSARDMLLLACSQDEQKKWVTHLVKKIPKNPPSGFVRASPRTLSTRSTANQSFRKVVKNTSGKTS

In general, IC50 refers to the concentration that gives 50% inhibition. The low end stands for inhibition by little substance, the high end for a need for much substance. Turning to `COc1cc(C(=O)NC(C)c2cc(F)cc(F)c2)ccc1-c1cn[nH]c1` (racemic) [Example 67, (+/−)-N-(1-(3,5-difluorophenyl)ethyl)-3-methoxy-4-(1H-pyrazol-4-yl)benzamide], in experiment [1], the IC50 turned out to be 26.5 nM.

Take `COc1cc(C(=O)NCc2cccc(O)c2)ccc1-c1cn[nH]c1` [Example 6, N-(3-hydroxybenzyl)-3-methoxy-4-(1H-pyrazol-4-yl)benzamide]: in experiment [1], it took 0.85 nM to reach half-maximal inhibition (IC50).

Compound `COC(=O)c1cccc(CNC(=O)c2ccc(-c3cn[nH]c3)c(OC)c2)c1` [Example 8, methyl 3-((3-methoxy-4-(1H-pyrazol-4-yl)benzamido)methyl)benzo-ate] displayed an IC50 in experiment [1] of 2.63 nM.

`CNC(=O)c1cccc(CNC(=O)c2ccc(-c3cn[nH]c3)c(OC)c2)c1` [Example 65, 3-methoxy-N-(3-(methylcarbamoyl)benzyl)-4-(1H-pyrazol-4-yl)benzamide]: the IC50 in experiment [1] came out at 3.05 nM.

Take `C[C@@H](N)[C@H]1CC[C@H](C(=O)Nc2ccncc2)CC1` [Example Y-27632, Y-27632]: in experiment [2], the neointimal formation result was “inhibited neointimal formation”. The blood pressure result in experiment [3] (control rats) was “only a minor effect on blood pressure”; in experiment [3] (spontaneously hypertensive rat, renal hypertensive rat and deoxycortisone acetate salt hypertensive rat models), “significantly decrease blood pressure”.

With `O=S(=O)(c1cccc2cnccc12)N1CCCNCC1` [fasudil], in experiment [4], the coronary constrictive remodeling entry is “promote a regression of coronary constrictive remodeling” and the coronary stenosis entry was “progressively reduce coronary stenosis”.
